The values below come from patent US10781197B2, “Sulfonamide analogues of galiellalactone” (GLACTONE PHARMA DEVELOPMENT AB, priority 2016, dated 2020).

This assay concerns STAT3 signaling. The assay is described as follows: STAT3 Luciferase reporter gene assay. The class given is cell-based. The conditions noted are these: for IC50: STAT3 reporter/HEK293 cell line, 1 h pretreatment, IL-6 induced for 16 h, luciferase activity. The method, then:
The ability to inhibit STAT3 signaling of the example compounds in comparison to galiellalactone was evaluated using a STAT3 Luciferase reporter gene assay.
Compounds were tested for dose response activity to determine IC50 at eight different doses (0.03, 0.1, 0.3, 1, 3, 10, 30 and 100 μM) in triplicate on the STAT3 reporter system.
Briefly, the STAT3 reporter/HEK293 cell line was plated in 96-well white plates for 16 h. Cells were pretreated with compounds for 1 h. Cells were then treated with IL-6 to induce STAT3 activation for 16 h. Luciferase activity was measured and analyzed.
On the technique in general: In a reporter assay the amount or activity of a reporter protein is the signal.

Molecules are shown by their SMILES. Read-outs that look alike come from different tables or passages of the source.

Turning to `C[C@]1(NS(=O)(=O)c2ccccc2)C=C2C(=O)O[C@@H]3CCC(C1)[C@]23O` (stereo partly drawn) [Example 2, N-[(4R,7R,9R,11S)-11-Hydroxy-9-methyl-2-oxo-3-oxatricyclo[5.3.1.0^4,^11]undec-1(10)-en-9-yl]benzenesulfonamide], the IC50 (usually the point on the concentration scale where inhibition reaches its midpoint) (Homo sapiens, read-out: IC50) was found to be 3 µM.

`COc1ccc(S(=O)(=O)N[C@@]2(C)C=C3C(=O)O[C@@H]4CCC(C2)[C@]34O)cc1` (stereo partly drawn) [Example 3, N-[(4R,7R,9R,11S)-11-Hydroxy-9-methyl-2-oxo-3-oxatricyclo[5.3.1.0^4,^11]undec-1(10)-en-9-yl]-4-methoxybenzene-1-sulfonamide]: the IC50 (Homo sapiens, read-out: IC50) turned out to be 8.41 µM.

Take `C[C@]1(NS(=O)(=O)c2ccccc2[N+](=O)[O-])C=C2C(=O)O[C@@H]3CCC(C1)[C@]23O` (stereo partly drawn) [Example 4, N-[(4R,7R,9R,11S)-11-Hydroxy-9-methyl-2-oxo-3-oxatricyclo[5.3.1.0^4,^11]undec-1(10)-en-9-yl]-2-nitrobenzene-1-sulfonamide]: the concentration for half-maximal inhibition (IC50) (Homo sapiens, read-out: IC50) was determined as 6.71 µM.

Consider `C[C@]1(NS(=O)(=O)c2ccc(C(F)(F)F)cc2)C=C2C(=O)O[C@@H]3CCC(C1)[C@]23O` (stereo partly drawn) [Example 5, N-[(4R,7R,9R,11S)-11-Hydroxy-9-methyl-2-oxo-3-oxatricyclo[5.3.1.0^4,^11]undec-1(10)-en-9-yl]-4-(trifluoromethyl)benzene-1-sulfonamide], for which the IC50 (Homo sapiens, read-out: IC50) was determined as 1.76 µM.

Regarding `Cc1cccc(S(=O)(=O)N[C@@]2(C)C=C3C(=O)O[C@@H]4CCC(C2)[C@]34O)c1` (stereo partly drawn) [Example 6, N-[(4R,7R,9R,11S)-11-Hydroxy-9-methyl-2-oxo-3-oxatricyclo[5.3.1.0^4,^11]undec-1(10)-en-9-yl]-3-methylbenzene-1-sulfonamide], for the setting “Homo sapiens, read-out: IC50”, the IC50 was 6.76 µM.

Turning to `C[C@]1(NS(=O)(=O)c2ccccc2F)C=C2C(=O)O[C@@H]3CCC(C1)[C@]23O` (stereo partly drawn) [Example 7, 2-Fluoro-N-[(4R,7R,9R,11S)-11-hydroxy-9-methyl-2-oxo-3-oxatricyclo[5.3.1.0^4,^11]undec-1(10)-en-9-yl]benzene-1-sulfonamide], the IC50 (Homo sapiens, read-out: IC50) came to 4.69 µM.

On to `C[C@]1(NS(=O)(=O)c2ccc([N+](=O)[O-])cc2)C=C2C(=O)O[C@@H]3CCC(C1)[C@]23O` (stereo partly drawn) [Example 8, N-[(4R,7R,9R,11S)-11-Hydroxy-9-methyl-2-oxo-3-oxatricyclo[5.3.1.0^4,^11]undec-1(10)-en-9-yl]-4-nitrobenzene-1-sulfonamide], for which the half-inhibitory concentration (IC50) (Homo sapiens, read-out: IC50) was found to be 5.05 µM.

As to `C[C@]1(NS(=O)(=O)c2ccc(C#N)cc2)C=C2C(=O)O[C@@H]3CCC(C1)[C@]23O` (stereo partly drawn) [Example 9, 4-Cyano-N-[(4R,7R,9R,11S)-11-hydroxy-9-methyl-2-oxo-3-oxatricyclo[5.3.1.0^4,^11]undec-1(10)-en-9-yl]benzene-1-sulfonamide], the half-maximal inhibitory concentration (IC50) (Homo sapiens, read-out: IC50) turned out to be 9.31 µM.

As to `C[C@]1(NS(=O)(=O)c2ccc(Br)cc2)C=C2C(=O)O[C@@H]3CCC(C1)[C@]23O` (stereo partly drawn) [Example 10, 4-Bromo-N-[(4R,7R,9R,11S)-11-hydroxy-9-methyl-2-oxo-3-oxatricyclo[5.3.1.0^4,^11]undec-1(10)-en-9-yl]benzene-1-sulfonamide], the concentration for half-maximal inhibition (IC50) (Homo sapiens, read-out: IC50) was 3.2 µM.

For the molecule `C[C@]1(NS(=O)(=O)c2ccc(C3=NCCO3)cc2)C=C2C(=O)O[C@@H]3CCC(C1)[C@]23O` (stereo partly drawn) [Example 11, 4-(4,5-Dihydro-1,3-oxazol-2-yl)-N-[(4R,7R,9R,11S)-11-hydroxy-9-methyl-2-oxo-3-oxatricyclo[5.3.1.0^4,^11]undec-1(10)-en-9-yl]benzene-1-sulfonamide], for the setting “Homo sapiens, read-out: IC50”, the IC50 worked out at 0.24 µM.

Take `Cc1ccc(S(=O)(=O)N[C@@]2(C)C=C3C(=O)O[C@@H]4CCC(C2)[C@]34O)nc1` (stereo partly drawn) [Example 12, N-[(4R,7R,9R,11S)-11-Hydroxy-9-methyl-2-oxo-3-oxatricyclo[5.3.1.0^4,^11]undec-1(10)-en-9-yl]-5-methylpyridine-2-sulfonamide]: where the note is “Homo sapiens, read-out: IC50”, the half-inhibitory concentration (IC50) stood at 3.38 µM.

In the case of `Cc1ccc(S(=O)(=O)N[C@@]2(C)C=C3C(=O)O[C@@H]4CCC(C2)[C@]34O)cn1` (stereo partly drawn) [Example 13, N-[(4R,7R,9R,11S)-11-Hydroxy-9-methyl-2-oxo-3-oxatricyclo[5.3.1.0^4,^11]undec-1(10)-en-9-yl]-6-methylpyridine-3-sulfonamide], the IC50 (Homo sapiens, read-out: IC50) turned out to be 5.65 µM.

On to `Cc1ccc(S(=O)(=O)N[C@@]2(C)C=C3C(=O)O[C@@H]4CCC(C2)[C@]34O)s1` (stereo partly drawn) [Example 14, N-[(4R,7R,9R,11S)-11-Hydroxy-9-methyl-2-oxo-3-oxatricyclo[5.3.1.0^4,^11]undec-1(10)-en-9-yl]-5-methylthiophene-2-sulfonamide], for which, where the note is “Homo sapiens, read-out: IC50”, the IC50 was determined as 6.78 µM.

In the case of `C[C@]1(NS(=O)(=O)c2ccc(C(F)(F)F)cc2Cl)C=C2C(=O)O[C@@H]3CCC(C1)[C@]23O` (stereo partly drawn) [Example 15, 2-Chloro-N-[(4R,7R,9R,11S)-11-hydroxy-9-methyl-2-oxo-3-oxatricyclo[5.3.1.0^4,^11]undec-1(10)-en-9-yl]-4-(trifluoromethyl)benzene-1-sulfonamide], for the setting “Homo sapiens, read-out: IC50”, the 50% inhibitory concentration (IC50) was determined as 2.9 µM.

For `Cc1ccc(S(=O)(=O)N[C@@]2(C)C=C3C(=O)O[C@@H]4CCC(C2)[C@]34O)cc1F` (stereo partly drawn) [Example 16, 3-Fluoro-N-[(4R,7R,9R,11S)-11-hydroxy-9-methyl-2-oxo-3-oxatricyclo[5.3.1.0^4,^11]undec-1(10)-en-9-yl]-4-methylbenzene-1-sulfonamide], the IC50 (Homo sapiens, read-out: IC50) was determined as 4.5 µM.

As to `C[C@]1(NS(=O)(=O)c2ccc(F)cc2)C=C2C(=O)O[C@@H]3CCC(C1)[C@]23O` (stereo partly drawn) [Example 17, 4-Fluoro-N-[(4R,7R,9R,11S)-11-hydroxy-9-methyl-2-oxo-3-oxatricyclo[5.3.1.0^4,^11]undec-1(10)-en-9-yl]benzene-1-sulfonamide], the IC50 (Homo sapiens, read-out: IC50) was found to be 3.16 µM.

Regarding `C[C@]1(NS(=O)(=O)c2ccc(Cl)cc2)C=C2C(=O)O[C@@H]3CCC(C1)[C@]23O` (stereo partly drawn) [Example 18, 4-Chloro-N-[(4R,7R,9R,11S)-11-hydroxy-9-methyl-2-oxo-3-oxatricyclo[5.3.1.0^4,^11]undec-1(10)-en-9-yl]benzene-1-sulfonamide], the IC50 (Homo sapiens, read-out: IC50) stood at 2.26 µM.

As to `Cc1ccc(CS(=O)(=O)N[C@@]2(C)C=C3C(=O)O[C@@H]4CCC(C2)[C@]34O)cc1` (stereo partly drawn) [Example 19, N-[(4R,7R,9R,11S)-11-Hydroxy-9-methyl-2-oxo-3-oxatricyclo[5.3.1.0^4,^11]undec-1(10)-en-9-yl]-1-(4-methylphenyl)methanesulfonamide], the half-maximal inhibitory concentration (IC50) (Homo sapiens, read-out: IC50) turned out to be 9.69 µM.

As to `C[C@]1(NS(=O)(=O)c2ccc(N)cc2)C=C2C(=O)O[C@@H]3CC[C@H](C1)[C@]23O` [Example 21, 4-Amino-N-[(4R,7R,9R,11 S)-11-hydroxy-9-methyl-2-oxo-3-oxatricyclo[5.3.1.0^4,11]undec-1(10)-en-9-yl]benzene-1-sulfonamide], the IC50 (Homo sapiens, read-out: IC50) was 3.63 µM.

Turning to `C[C@]1(NS(=O)(=O)c2ccc(CO)cc2)C=C2C(=O)O[C@@H]3CC[C@H](C1)[C@]23O` [Example 22, N-[(4R,7R,9R,11S)-11-Hydroxy-9-methyl-2-oxo-3-oxatricyclo[5.3.1.0^4,11]undec-1(10)-en-9-yl]-4-(hydroxymethyl)benzene-1-sulfonamide], the half-maximal inhibitory concentration (IC50) (Homo sapiens, read-out: IC50) amounted to 11.4 µM.

Take `Cc1ccc(S(=O)(=O)N(C)[C@@]2(C)C=C3C(=O)O[C@@H]4CC[C@H](C2)[C@]34O)cc1` [Example 23, N-[(4R,7R,9R,11 S)-11-Hydroxy-9-methyl-2-oxo-3-oxatricyclo[5.3.1.0^4,11]undec-1(10)-en-9-yl]-N,4-dimethylbenzene-1-sulfonamide]: the “activity in the STAT3 reporter assay (in words)” value (shortened to “activity”) is listed as “significantly reduced or total loss of activity” and the 50% inhibitory concentration (IC50) entry was “inactive”. Further, under “listed as example 23”, the “activity” value is listed as “no or low activity”.

As to `CC(C)S(=O)(=O)N[C@@]1(C)C=C2C(=O)O[C@@H]3CC[C@H](C1)[C@]23O` [Example 24, N-[(4R,7R,9R,11 S)-11-Hydroxy-9-methyl-2-oxo-3-oxatricyclo[5.3.1.0^4,11]undec-1(10)-en-9-yl]propane-2-sulfonamide], the “activity” value is “significantly reduced or total loss of activity”. For the same molecule, for the setting “Homo sapiens, read-out: IC50”, the 50% inhibitory concentration (IC50) worked out at 97 µM. Moreover, the “activity” value (listed as example 24) is “no or low activity”.

With `COc1ccc(CN2C(=O)C3=C[C@](C)(NS(=O)(=O)c4ccc(C)cc4)CC4CC[C@@H]2[C@@]34O)cc1` (stereo partly drawn) [Example 25, N-[(4R,7R,9R,11S)-11-hydroxy-3-[(4-methoxyphenyl)methyl]-9-methyl-2-oxo-3-azatricyclo[5.3.1.04,^11]undec-1(10)-en-9-yl]-4-methylbenzene-1-sulfonamide], the IC50 (Homo sapiens, read-out: IC50) is 3.7 µM.

For `COc1ccc(CN2C(=O)C3=C[C@](C)(NS(=O)(=O)c4ccc(C(F)(F)F)cn4)CC4CC[C@@H]2[C@@]34O)cc1` (stereo partly drawn) [Example 26, N-[(4R,7R,9R,11S)-11-Hydroxy-3-[(4-methoxyphenyl)methyl]-9-methyl-2-oxo-3-azatricyclo[5.3.1.04,^11]undec-1(10)-en-9-yl]-5-(trifluoromethyl)pyridine-2 sulfonamide], the IC50 (Homo sapiens, read-out: IC50) amounted to 8.64 µM.

As for `C[C@]1(NS(=O)(=O)c2ccc(C(F)(F)F)cn2)C=C2C(=O)N(Cc3ccc(C#N)cc3)[C@@H]3CC[C@H](C1)[C@]23O` [Example 27, N-[(4R,7R,9R,11S)-3-[(4-Cyanophenyl)methyl]-11-hydroxy-9-methyl-2-oxo-3-azatricyclo[5.3.1.0^4,11]undec-1 (10)-en-9-yl]-5-(trifluoromethyl)pyridine-2-sulfonamide], the IC50 (Homo sapiens, read-out: IC50) turned out to be 8.61 µM.
